In US5808049A, “Stereospecific 5-fu esters and methods for preparing same” (Director-General of Agency of Industrial Science and …, priority 1994, dated 1998):

Experiments:
in vitro [1] = settings: rat, anr4 cells, pH 7.5
Procedure: (§1) Each of the reaction mixtures was prepared by dissolving 1 mg of the ester in 10 μl of ethanol, and by mixing with it, 90 μl of a 0.1M phosphoric acid buffer (having a pH of 7.5), plus one of the following: 100 μl of a cell suspension, or 20 or 30 μl of whole blood, or 50 μl of tissue homogenate. […] The cells numbers in 100 μl of the cell suspension used in the reaction were as follows: rat liver cancer cells Anr4=7×10^6 ; rat pancreas cancer cells ARIP=8×10^6 ; rat sarcoma cells XC=5×10^6 ; human histiocytic leukemia cells U937=1×10^7 ; human pancreas cancer cells MIA PaCa-2=8×10^6 ; and human intestinum crassum cancer cells Colo 320=1×10^7. Fifty μl of the tissue homogenate corresponded to 20 mg of wet tissue.
(§2) Each of these reaction mixtures was stirred for 12 hours at 30° C. by a magnetic stirrer; then 1.5 μl of 2N HCl was added, to bring the pH to about 2.5, and extraction with 1 ml of ethyl acetate in the presence of a saturated sodium chloride was carried out twice. The ethyl acetate layers of each sample were combined, the volume was adjusted to precisely 2 ml, and it was divided into 1.7 ml and 0.3 ml. The former was concentrated under reduced pressure, and the contained produced carboxylic acid was isolated by thin-layer preparative chromatography. A solution of diazomethane in ether was added to it, to methylate it, and the absolute configuration and the optical purity of the methylated product were determined by high-performance liquid chromatography using a chiral column. The latter 0.3 ml was directly methylated, and then it was concentrated and adjusted to 0.3 ml again, and the methyl ester of the contained produced carboxylic acid was determined quantitatively by gas chromatography, from which the hydrolyzed rate was determined. The column used in the high-performance liquid chromatography was a Chiralcell OJ or OD column (trade name; 4.6×250 mm) manufactured by Daicel; the elution was carried out by using a 10% 2-propanol/hexane mixture; and the flow velocity was 1 or 0.75 ml/min. The column used in the gas chromatography was a capillary column of OV-1 (0.25 mm×25 m), and the analysis temperature was 120° to 180° C.

in vitro [2] = settings: rat, arip cells, pH 7.5
Procedure: as §1, §2

in vitro [3] = settings: rat, xc cells, pH 7.5
Procedure: as §1, §2

in vitro [4] = settings: human, u937 cells, pH 7.5
Procedure: as §1, §2

in vitro [5] = settings: human, mia paca-2 cells, pH 7.5
Procedure: as §1, §2

in vitro [6] = settings: human, colo 320 cells, pH 7.5
Procedure: as §1, §2

in vitro [7] = settings: rat, blood, pH 7.5
Procedure: as §1, §2

in vitro [8] = settings: human, blood, pH 7.5
Procedure: as §1, §2

[9] = Stereoselective hydrolysis of anticancer agent esters with rat whole blood; settings: pH 7.5; for enantiomer excess of the carboxylic acid produced by the hydrolysis: rat whole blood, 12 hours at 30° C.; for metabolised at 12 h: rat, whole blood
Procedure: as §1, §2

[10] = Stereoselective hydrolysis of anticancer agent esters with human whole blood; settings: pH 7.5; for enantiomer excess of the carboxylic acid produced by the hydrolysis: human whole blood, 12 hours at 30° C.
Procedure: as §1, §2

rat sarcoma cells XC = assay: Stereoselective hydrolysis of anticancer agent esters with rat sarcoma cells XC; settings: XC; 12 hours at 30° C., pH 7.5
Procedure: as §1, §2

[11] = test system: rat liver cancer cells Anr4; assay: Stereoselective hydrolysis of anticancer agent esters with rat liver cancer cells Anr4; settings: Anr4; 12 hours at 30° C., pH 7.5
Procedure: as §1, §2

[12] = Stereoselective hydrolysis of anticancer agent esters with normal rat liver homogenate; settings: 12 hours at 30° C., pH 7.5
[13] = Stereoselective hydrolysis of anticancer agent esters with normal rat muscle homogenate; settings: 12 hours at 30° C., pH 7.5
[14] = test system: rat pancreas cancer cells ARIP; assay: Stereoselective hydrolysis of anticancer agent esters with rat pancreas cancer cells ARIP; settings: ARIP; 12 hours at 30° C., pH 7.5
Procedure: as §1, §2

[15] = Stereoselective hydrolysis of anticancer agent esters with normal rat pancreas homogenate; settings: 12 hours at 30° C., pH 7.5
Procedure: as §1, §2

[16] = test system: human histiocytic leukemia cells U937; assay: Stereoselective hydrolysis of anticancer agent esters with human histiocytic leukemia cells U937; settings: U937; 12 hours at 30° C., pH 7.5
Procedure: as §1, §2

[17] = test system: human pancreas cancer cells MIA PaCa-2; assay: Stereoselective hydrolysis of anticancer agent esters with human pancreas cancer cells MIA PaCa-2; settings: MIA PaCa-2; 12 hours at 30° C., pH 7.5
Procedure: as §1, §2

[18] = test system: human intestinum crassum cancer cells Colo 320; assay: Stereoselective hydrolysis of anticancer agent esters with human intestinum crassum cancer cells Colo 320; settings: Colo320; 12 hours at 30° C., pH 7.5
Procedure: as §1, §2

[19] = test system: rat liver cancer cells Anr4; assay: Anticancer effect (suppression of multiplication) on rat liver cancer cells Anr4; type: cell-based; settings: for multiplication of Anr4 cells suppressed to % of the control: same way as in Example 2 (Example 3); for multiplication of Anr4 cells suppressed to % of the control / number of cells, % for the value of the control: 2880 min; for suppression of multiplication of Anr4 cells, comparison of enantiomers: Ib: at 1 μM to 0.1 μM, Ic: at 10 μM; for number of cells, % for the value of the control: 6 hours exposure, then 42 hours in fresh medium
Procedure: The anticancer effect of levo-rotatory or dextro-rotatory 4-bis(2-chloroethyl)aminophenyl 2-methoxy-2-phenylacetate (Ib) on rat liver cancer cells Anr4 was tested. Anr4 cells were suspended, in an amount of cells number of 1×10^6 per 1 ml, in William's E medium containing 10% of fetal bovine serum, and 0.1 ml of the suspension was distributed to each well of a 24-well multiplate. Further, 1.385 ml of the above medium was added to each well. They were cultured for 4 hours at 37° C. in a CO2 incubator, and then 15 μl of pure ethanol or an ethanol solution containing (R)-(-)-Ib or (S)-(+)-Ib obtained in Synthetic. Example 4, having a concentration of 10 mM, 1 mM, 0.1 mM, 0.01 mM, or 0.001 mM, was added to the medium in each well, and they were mixed well.
After they were cultured for 6 hours in the above incubator, the medium was removed by suction, and 1.5 ml of fresh medium was added. After culturing was continued for 42 hours, the number of cells in each well was counted by a Coulter counter. The results, in terms of % for the value of the control (the well added pure ethanol), were 9%, 12%, 16%, 55%, and 95% for the concentrations of 100 μM, 10 μM, 1 μM, 0.1 μM, and 0.01 μM of (R)-(-)-Ib in the medium, respectively. For the concentrations of 100 μM, 10 μM, 1 μM, 0.1 μM, and 0.01 μM of (S)-(+)-Ib in the medium, the results were 9%, 18%, 30%, 83%, and 95%, respectively.
The anticancer effect of the optically active substances of Ic obtained in Synthetic Example 5 on Anr4 cells was tested in the same way as in Example 2. As a result, at 10 μM, (R)-(+)-Ic suppressed the multiplication of Anr4 cells to 14% of the control, and (S)-(-)-Ic suppressed the multiplication of Anr4 cells to 25% of the control.

[20] = Stereoselective hydrolysis of anticancer agent esters with rat sarcoma cells XC; settings: rat, xc cells, pH 7.5
Procedure: as §1, §2

[21] = Stereoselective hydrolysis of anticancer agent esters with rat liver cancer cells Anr4; settings: rat, anr4 cells, pH 7.5
Procedure: as §1, §2

[22] = Stereoselective hydrolysis of anticancer agent esters with rat pancreas cancer cells ARIP; settings: rat, arip cells, pH 7.5
Procedure: as §1, §2

| SMILES | metabolised at 12 h (in vitro [1]) | metabolised at 12 h (in vitro [2]) | metabolised at 12 h (in vitro [3]) | metabolised at 12 h (in vitro [7]) | enantiomer excess of the carboxylic acid produced by the hydrolysis [9] | enantiomer excess of the carboxylic acid produced by the hydrolysis [10] | enantiomer excess of the carboxylic acid produced by the hydrolysis (rat sarcoma cells XC) | enantiomer excess of the carboxylic acid produced by the hydrolysis [11] | enantiomer excess of the carboxylic acid produced by the hydrolysis [12] | enantiomer excess of the carboxylic acid produced by the hydrolysis [13] | enantiomer excess of the carboxylic acid produced by the hydrolysis [14] | enantiomer excess of the carboxylic acid produced by the hydrolysis [15] | enantiomer excess of the carboxylic acid produced by the hydrolysis [16] | further results |
| --- | --- | --- | --- | --- | --- | --- | --- | --- | --- | --- | --- | --- | --- | --- |
| CC(C(=O)Oc1ccc(N(CCCl)CCCl)cc1)c1ccccc1 (racemic) [Ia, (±)-4-bis(2-chloroethyl)aminophenyl 2-phenylpropionate] | 20.9% | 10.2% | 6.3% | 5.8% | 9.4 % e.e. | 9.1 % e.e. | 18.6 % e.e. | 68.9 % e.e. | 15.7 % e.e. | 1.8 % e.e. | 42.8 % e.e. | 1.0 % e.e. | 72.3 % e.e. | metabolised at 12 h (in vitro [4]): 5.2%; metabolised at 12 h (in vitro [5]): 6%; metabolised at 12 h (in vitro [6]): 3%; metabolised at 12 h (in vitro [8]): 2.4%; enantiomer excess of the carboxylic acid produced by the hydrolysis [17]: 87.1 % e.e.; enantiomer excess of the carboxylic acid produced by the hydrolysis [18]: 68.9 % e.e. |
| COC(C(=O)Oc1ccc(N(CCCl)CCCl)cc1)c1ccccc1 (racemic) [Ib, (±)-4-bis(2-chloroethyl)aminophenyl 2-methoxy-2-phenylacetate] | 14% | 55.2% | 23.9% | 55.2% | 20.4 % e.e. | – | 69.9 % e.e. | 91.3 % e.e. | 33.2 % e.e. | 46.0 % e.e. | 26.8 % e.e. | 8.4 % e.e. | – | – |
| O=C(Oc1ccc(N(CCCl)CCCl)cc1)C(Cc1ccccc1)NC(=O)C(F)(F)F (racemic) [Ic, (±)-4-bis(2-chloroethyl)aminophenyl 2-trifluoroacetamido-3-phenylpropionate] | 0.6% | 14.6% | 10.6% | 18.2% | 18.3 % e.e. | 23.7 % e.e. | 77.9 % e.e. | 94.9 % e.e. | 93.2 % e.e. | 72.4 % e.e. | 83.0 % e.e. | > 99 % e.e. | > 99 % e.e. | metabolised at 12 h (in vitro [4]): 9.6%; metabolised at 12 h (in vitro [5]): 7.2%; metabolised at 12 h (in vitro [6]): 2.4%; metabolised at 12 h (in vitro [8]): 8%; enantiomer excess of the carboxylic acid produced by the hydrolysis [17]: 2.6 % e.e.; enantiomer excess of the carboxylic acid produced by the hydrolysis [18]: 35.9 % e.e. |
| O=C(Oc1ccc(N(CCCl)CCCl)cc1)[C@@H](Cc1ccccc1)NC(=O)C(F)(F)F [(R)-(+)-Ic, 4-bis(2-chloroethyl)aminophenyl 2-trifluoroacetamido-3-phenylpropionate] | – | – | – | – | – | – | – | – | – | – | – | – | – | multiplication of Anr4 cells suppressed to % of the control ([19]; 10 μM): 14%; suppression of multiplication of Anr4 cells, comparison of enantiomers [19]: stronger cell multiplication-suppressing effect than (S)-(-)-Ic |
| CO[C@@H](C(=O)Oc1ccc(N(CCCl)CCCl)cc1)c1ccccc1 [(R)-(-)-Ib, 4-bis(2-chloroethyl)aminophenyl 2-methoxy-2-phenylacetate] | – | – | – | – | – | – | – | – | – | – | – | – | – | number of cells, % for the value of the control ([19]; 0.01 μM): 95%; number of cells, % for the value of the control ([19]; 0.1 μM): 55%; number of cells, % for the value of the control ([19]; 1 μM): 16%; number of cells, % for the value of the control ([19]; 10 μM): 12%; number of cells, % for the value of the control ([19]; 100 μM): 9%; suppression of multiplication of Anr4 cells, comparison of enantiomers [19]: suppressed the multiplication of Anr4 cells more strongly than dextro-rotatory (S)-(+)-Ib did |
| CO[C@H](C(=O)Oc1ccc(N(CCCl)CCCl)cc1)c1ccccc1 [(S)-(+)-Ib, 4-bis(2-chloroethyl)aminophenyl 2-methoxy-2-phenylacetate] | – | – | – | – | – | – | – | – | – | – | – | – | – | number of cells, % for the value of the control ([19]; 0.01 μM): 95%; number of cells, % for the value of the control ([19]; 0.1 μM): 83%; number of cells, % for the value of the control ([19]; 1 μM): 30%; number of cells, % for the value of the control ([19]; 10 μM): 18%; number of cells, % for the value of the control ([19]; 100 μM): 9% |
| O=C(Oc1ccc(N(CCCl)CCCl)cc1)[C@H](Cc1ccccc1)NC(=O)C(F)(F)F [(S)-(-)-Ic, 4-bis(2-chloroethyl)aminophenyl 2-trifluoroacetamido-3-phenylpropionate] | – | – | – | – | – | – | – | – | – | – | – | – | – | multiplication of Anr4 cells suppressed to % of the control ([19]; 10 μM): 25% |
| CC(C(=O)OC[C@H]1O[C@@H](n2cc(F)c(=O)[nH]c2=O)[C@H](O)[C@@H]1O)c1ccccc1 (stereo partly drawn) [IIa, 5'-(RS)-(2-phenylpropionyl)-5-fluorouridine] | – | – | – | – | 53.7 % e.e. | 12.5 % e.e. | 82.1 % e.e. | 81.6 % e.e. | 85.6 % e.e. | 61.7 % e.e. | 91.3 % e.e. | 36.9 % e.e. | 38.2 % e.e. | metabolised at 12 h [9]: 6.3%; metabolised at 12 h ([10]; human, whole blood): 5.3%; metabolised at 12 h [20]: 16.8%; metabolised at 12 h [21]: 26.3%; metabolised at 12 h [22]: 25.2% |
| COC(C(=O)OC[C@H]1O[C@@H](n2cc(F)c(=O)[nH]c2=O)[C@H](O)[C@@H]1O)c1ccccc1 (stereo partly drawn) [IIb, 5'-(RS)-(2-methoxy-2-phenylacetyl)-5-fluorouridine] | – | – | – | – | 55.0 % e.e. | – | 81.5 % e.e. | 81.1 % e.e. | 6.0 % e.e. | 18.5 % e.e. | 84.1 % e.e. | 42.5 % e.e. | – | metabolised at 12 h [9]: 14.8%; metabolised at 12 h [20]: 23%; metabolised at 12 h [21]: 23.7%; metabolised at 12 h [22]: 27.7% |
